Data taken from ChEMBL document CHEMBL1201862, “PubChem BioAssay data set” (2004).
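1) Cells in 96-well plates. 2) Compound, 48 h, 5 concentrations. 3) Linear interpolation between surrounding doses. 4) Unreached endpoint = highest concentration. GI50 = concentration required for 50% inhibition of growth.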 Activity calls are given as the source filed them. No stated cut-off is given here; in the data, active = GI50 up to about 1.1 µM and inactive = higher.

Key:
Assay in all cases: inhibition of tumour cell growth, NCI panel, 48 h
786-0 = tested on: 786-0
A498 = tested on: A498
A549 = tested on: A549
ACHN = tested on: ACHN
BT-549 = tested on: BT-549
CAKI-1 = tested on: CAKI-1
CCRF-CEM = tested on: CCRF-CEM
COLO 205 = tested on: COLO 205
DU-145 = tested on: DU-145
EKVX = tested on: EKVX
HCC 2998 = tested on: HCC 2998
HCT-116 = tested on: HCT-116
HCT-15 = tested on: HCT-15
HL-60 = tested on: HL-60
HOP-92 = tested on: HOP-92
HT-29 = tested on: HT-29
Hs-578T = tested on: Hs-578T
IGROV-1 = tested on: IGROV-1
K562 = tested on: K562
KM12 = tested on: KM12
LOX IMVI = tested on: LOX IMVI
M14 = tested on: M14
MCF7 = tested on: MCF7
MDA-MB-231 = tested on: MDA-MB-231
MDA-MB-435 = tested on: MDA-MB-435
MDA-N = tested on: MDA-N
MOLT-4 = tested on: MOLT-4
NCI-H226 = tested on: NCI-H226
NCI-H23 = tested on: NCI-H23
NCI-H460 = tested on: NCI-H460
NCI-H522 = tested on: NCI-H522
NCI/ADR-RES = tested on: NCI/ADR-RES
OVCAR-3 = tested on: OVCAR-3
OVCAR-4 = tested on: OVCAR-4
OVCAR-5 = tested on: OVCAR-5
OVCAR-8 = tested on: OVCAR-8
PC-3 = tested on: PC-3
RPMI-8226 = tested on: RPMI-8226
SF-268 = tested on: SF-268
SF-295 = tested on: SF-295
SF-539 = tested on: SF-539
SK-MEL-28 = tested on: SK-MEL-28
SK-MEL-2 = tested on: SK-MEL-2
SK-MEL-5 = tested on: SK-MEL-5
SK-OV-3 = tested on: SK-OV-3
SN12C = tested on: SN12C
SNB-19 = tested on: SNB-19
SNB-75 = tested on: SNB-75
SW-620 = tested on: SW-620
T47D = tested on: T47D
U-251 = tested on: U-251
UACC-257 = tested on: UACC-257
UACC-62 = tested on: UACC-62
UO-31 = tested on: UO-31
HOP-62 = tested on: HOP-62
Malme-3M = tested on: Malme-3M
RXF 393 = tested on: RXF 393
TK-10 = tested on: TK-10

## CC(C)(O)C1COC2=C1C(=O)c1ccccc1C2=O (stereo not given)
786-0
  GI50: 41.3 µM (inactive)
A498
  GI50: > 100 µM (inactive)
A549
  GI50: > 100 µM (inactive)
ACHN
  GI50: 48.2 µM (inactive)
BT-549
  GI50: 18.2 µM (inactive)
CAKI-1
  GI50: 60.7 µM (inactive)
CCRF-CEM
  GI50: 46.2 µM (inactive)
COLO 205
  GI50: 82 µM (inactive)
DU-145
  GI50: 20.9 µM (inactive)
EKVX
  GI50: 32.3 µM (inactive)
HCC 2998
  GI50: > 100 µM (inactive)
HCT-116
  GI50: 25.3 µM (inactive)
HCT-15
  GI50: 27.5 µM
HL-60
  GI50: 18.9 µM (inactive)
HOP-92
  GI50: 27.5 µM (inactive)
HT-29
  GI50: 44.4 µM (inactive)
Hs-578T
  GI50: 27 µM (inactive)
IGROV-1
  GI50: 40.6 µM (inactive)
K562
  GI50: 35.2 µM (inactive)
KM12
  GI50: 88.3 µM (inactive)
LOX IMVI
  GI50: 19.2 µM (inactive)
M14
  GI50: 35.6 µM (inactive)
MCF7
  GI50: 20.3 µM (inactive)
MDA-MB-231
  GI50: 38.7 µM (inactive)
MDA-MB-435
  GI50: 23.3 µM (inactive)
MDA-N
  GI50: 18.6 µM (inactive)
MOLT-4
  GI50: 25.6 µM (inactive)
NCI-H226
  GI50: 32.5 µM (inactive)
NCI-H23
  GI50: 18.2 µM (inactive)
NCI-H460
  GI50: 54 µM (inactive)
NCI-H522
  GI50: 47.1 µM (inactive)
NCI/ADR-RES
  GI50: 19.1 µM (inactive)
OVCAR-3
  GI50: 24.9 µM (inactive)
OVCAR-4
  GI50: 71 µM (inactive)
OVCAR-5
  GI50: 23.7 µM (inactive)
OVCAR-8
  GI50: 22.5 µM (inactive)
PC-3
  GI50: 31.6 µM (inactive)
RPMI-8226
  GI50: 44.8 µM (inactive)
SF-268
  GI50: 21.6 µM (inactive)
SF-295
  GI50: 42.5 µM (inactive)
SF-539
  GI50: 43.6 µM (inactive)
SK-MEL-28
  GI50: 23.2 µM (inactive)
SK-MEL-2
  GI50: 29.7 µM (inactive)
SK-MEL-5
  GI50: 22.3 µM (inactive)
SK-OV-3
  GI50: > 100 µM (inactive)
SN12C
  GI50: 27.8 µM (inactive)
SNB-19
  GI50: > 100 µM (inactive)
SNB-75
  GI50: 19.8 µM (inactive)
SW-620
  GI50: 23 µM (inactive)
T47D
  GI50: 33.4 µM (inactive)
U-251
  GI50: 58.5 µM (inactive)
UACC-257
  GI50: 71.9 µM (inactive)
UACC-62
  GI50: 22.9 µM (inactive)
UO-31
  GI50: 81.1 µM (inactive)

## O=[N+]([O-])c1ccc2c(c1)nc(Cc1ccccc1)n2C[C@@H]1CCCN2CCCCC12 (stereo not given in full)
786-0
  GI50: 22.3 µM (inactive)
A498
  GI50: 13.4 µM (inactive)
A549
  GI50: 51.2 µM (inactive)
ACHN
  GI50: 57.8 µM (inactive)
BT-549
  GI50: 26.7 µM (inactive)
CAKI-1
  GI50: 28.3 µM (inactive)
CCRF-CEM
  GI50: 17.6 µM (inactive)
COLO 205
  GI50: 17.3 µM (inactive)
DU-145
  GI50: 60.5 µM (inactive)
EKVX
  GI50: 17.1 µM (inactive)
HCC 2998
  GI50: 12.9 µM (inactive)
HCT-116
  GI50: 33.7 µM (inactive)
HCT-15
  GI50: 36.9 µM
HL-60
  GI50: < 0.01 µM (active)
HOP-62
  GI50: > 100 µM (inactive)
HOP-92
  GI50: 3.71 µM (inactive)
HT-29
  GI50: 17.5 µM (inactive)
Hs-578T
  GI50: 38.5 µM (inactive)
IGROV-1
  GI50: 25.8 µM (inactive)
K562
  GI50: 18.7 µM (inactive)
KM12
  GI50: 21.3 µM (inactive)
LOX IMVI
  GI50: 20.4 µM (inactive)
M14
  GI50: 18.2 µM (inactive)
MCF7
  GI50: 41.1 µM (inactive)
MDA-MB-231
  GI50: 31.3 µM (inactive)
MDA-MB-435
  GI50: 17.2 µM (inactive)
MDA-N
  GI50: 20.6 µM (inactive)
MOLT-4
  GI50: 17.4 µM (inactive)
Malme-3M
  GI50: 14.2 µM (inactive)
NCI-H226
  GI50: 89.9 µM (inactive)
NCI-H23
  GI50: 27.5 µM (inactive)
NCI-H460
  GI50: 41.4 µM (inactive)
NCI-H522
  GI50: 21.6 µM (inactive)
NCI/ADR-RES
  GI50: 22.9 µM (inactive)
OVCAR-3
  GI50: 41.5 µM (inactive)
OVCAR-4
  GI50: 27.4 µM (inactive)
OVCAR-5
  GI50: 28.5 µM (inactive)
OVCAR-8
  GI50: 34.9 µM (inactive)
PC-3
  GI50: 37.3 µM (inactive)
RXF 393
  GI50: 19.4 µM (inactive)
SF-268
  GI50: 45.8 µM (inactive)
SF-295
  GI50: 18 µM (inactive)
SK-MEL-28
  GI50: 18.6 µM (inactive)
SK-MEL-2
  GI50: 20.9 µM (inactive)
SK-MEL-5
  GI50: 16.5 µM (inactive)
SK-OV-3
  GI50: 34.4 µM (inactive)
SN12C
  GI50: 48 µM (inactive)
SNB-19
  GI50: 56.4 µM (inactive)
SNB-75
  GI50: 63.5 µM (inactive)
SW-620
  GI50: 40.4 µM (inactive)
T47D
  GI50: 39.4 µM (inactive)
TK-10
  GI50: 37.5 µM (inactive)
U-251
  GI50: 44.7 µM (inactive)
UACC-257
  GI50: 15.8 µM (inactive)
UACC-62
  GI50: 19.5 µM (inactive)
UO-31
  GI50: 6.49 µM (inactive)
